Assay results as given in US20260138976A1 (Hoffmann-La Roche Inc., priority 2022, published 2026).

Test system: primary human T-cells
Assay: Proliferation assay (5 days, CellTiter-Glo, CD3-stimulated T-cells)
Format: cell-based
Conditions: for Emax proliferation (% activation): CD3 condition, normalised to DMSO (neutral) and 20 μM reference compound A1 = 100%; for EC50: Homo sapiens, T-cell, 120 h, CD3-stimulated primary human T-cells, 5 days, CellTiter-Glo, fitted sigmoidal curve, read-out: Tcell Proliferation CD3 EC50
Outline: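 Proliferation read-out: ATP luminescence (CellTiter-Glo 2.0) at day 5 in expanded primary human T-cells on CD3 antibody-coated plates, with PBS-only plates as a counter screen. Compounds in 5–6 pt series (factor 3.333, top 20 or 10 μM final). Values are normalized to DMSO (neutral) and 20 μM reference A1 (100%), from sigmoidal fits.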

Row | Compound | Emax proliferation (% activation) | EC50 [nM]
1 | CC(N)(c1nnc(-c2ccc3c(c2)N(Cc2ccc(-c4noc(CC(F)(F)F)n4)cc2)C(=O)[C@@H](N)CS3(=O)=O)o1)C(F)(F)F (stereo partly drawn) [Example 33, (3R)-3-amino-7-[5-(1-amino-2,2,2-trifluoro-1-methyl-ethyl)-1,3,4-oxadiazol-2-yl]-1,1-dioxo-5-[[4-[5-(2,2,2-trifluoroethyl)-1,2,4-oxadiazol-3-yl]phenyl]methyl]-2,3-dihydro-1λ^6,5-benzothiazepin-4-one] | 105 | 3190
2 | CC(C)(C#N)c1nnc(-c2ccc3c(c2)N(Cc2ccc(-c4ccc(C(F)(F)F)cc4)cc2)C(=O)[C@@H](N)CS3(=O)=O)o1 [Example 46] | 94 | 116
3 | CC1(c2nnc(-c3ccc4c(c3)N(Cc3ccc(-c5ccc(C(F)(F)F)cc5)cc3)C(=O)[C@@H](N)CS4(=O)=O)o2)CCO1 (stereo partly drawn) [Example 48, (3R)-3-amino-7-[5-(2-methyloxetan-2-yl)-1,3,4-oxadiazol-2-yl]-1,1-dioxo-5-[[4-[4-(trifluoromethyl)phenyl]phenyl]methyl]-2,3-dihydro-1lambda6,5-benzothiazepin-4-one] | 139 | 321
4 | N[C@H]1CS(=O)(=O)c2ccc(-c3nnc(C4(CO)CCCO4)o3)cc2N(Cc2ccc(-c3ccc(C(F)(F)F)cc3)cc2)C1=O (stereo partly shown) [Example 55] | 59 | 1090
5 | COC(=O)N1CC2CC(c3nnc(-c4ccc5c(c4)N(Cc4ccc(-c6ccc(OC)cc6)cc4)C(=O)[C@@H](N)CS5(=O)=O)o3)(C2)C1 [Example 59, methyl 1-[5-[(3R)-3-amino-5-[[4-(4-methoxyphenyl)phenyl]methyl]-1,1,4-trioxo-2,3-dihydro-1λ^6,5-benzothiazepin-7-yl]-1,3,4-oxadiazol-2-yl]-3-azabicyclo[3.1.1]heptane-3-carboxylate] | 103 | 29
6 | COC(=O)N1CC2CC(c3nnc(-c4ccc5c(c4)N(Cc4ccc(-c6ccc(C(F)(F)F)cc6)cc4)C(=O)[C@@H](N)CS5(=O)=O)o3)(C2)C1 [Example 60, methyl 1-[5-[(3R)-3-amino-1,1,4-trioxo-5-[[4-[4-(trifluoromethyl)phenyl]phenyl]methyl]-2,3-dihydro-1λ^6,5-benzothiazepin-7-yl]-1,3,4-oxadiazol-2-yl]-3-azabicyclo[3.1.1]heptane-3-carboxylate] | 110 | 41.7
7 | COc1ccc(-c2ccc(CN3C(=O)[C@@H](N)CS(=O)(=O)c4ccc(-c5nnc(C6(CO)CCCO6)o5)cc43)cc2)cc1 (stereo partly drawn) [Example 63, (3R)-3-amino-7-[5-[2-(hydroxymethyl)tetrahydrofuran-2-yl]-1,3,4-oxadiazol-2-yl]-5-[[4-(4-methoxyphenyl)phenyl]methyl]-1,1-dioxo-2,3-dihydro-1λ^6,5-benzothiazepin-4-one] | 103 | 1060
8 | COC(F)(c1nnc(-c2ccc3c(c2)N(Cc2ccc(-c4nnc(C5CC5)o4)cc2)C(=O)[C@@H](N)CS3(=O)=O)o1)C(F)(F)F (stereo partly shown) [Example 65] | 102 | 681
9 | N[C@H]1CS(=O)(=O)c2ccc(-c3nnc(N4CCC(F)(F)CC4)o3)cc2N(Cc2ccc(-c3nnc(C(F)(F)F)o3)cc2)C1=O [Example 71, (3R)-3-amino-7-[5-(4,4-difluoro-1-piperidyl)-1,3,4-oxadiazol-2-yl]-1,1-dioxo-5-[[4-[5-(trifluoromethyl)-1,3,4-oxadiazol-2-yl]phenyl]methyl]-2,3-dihydro-1λ^6,5-benzothiazepin-4-one] | 129 | 2870
10 | CC1(Nc2nnc(-c3ccc4c(c3)N(Cc3ccc(-c5noc(C(F)(F)F)n5)cc3)C(=O)[C@@H](N)CS4(=O)=O)o2)CC(F)(F)C1 [Example 72, (3R)-3-amino-7-[5-[(3,3-difluoro-1-methyl-cyclobutyl)amino]-1,3,4-oxadiazol-2-yl]-1,1-dioxo-5-[[4-[5-(trifluoromethyl)-1,2,4-oxadiazol-3-yl]phenyl]methyl]-2,3-dihydro-1λ^6,5-benzothiazepin-4-one] | 252 | 1650
11 | N[C@H]1CS(=O)(=O)c2ccc(-c3nnc(N4CCOC(C(F)(F)F)C4)o3)cc2N(Cc2ccc(-c3ccc(C(F)(F)F)cc3)cc2)C1=O (stereo partly drawn) [Example 73, (3R)-3-amino-1,1-dioxo-7-[5-[2-(trifluoromethyl)morpholin-4-yl]-1,3,4-oxadiazol-2-yl]-5-[[4-[4-(trifluoromethyl)phenyl]phenyl]methyl]-2,3-dihydro-1λ^6,5-benzothiazepin-4-one] | 95 | 828
12 | N[C@H]1CS(=O)(=O)c2ccc(-c3nnc(N4CCOC(C(F)(F)F)C4)o3)cc2N(Cc2ccc(-c3noc(C(F)(F)F)n3)cc2)C1=O (stereo partly drawn) [Example 74, (3R)-3-amino-1,1-dioxo-7-[5-[2-(trifluoromethyl)morpholin-4-yl]-1,3,4-oxadiazol-2-yl]-5-[[4-[5-(trifluoromethyl)-1,2,4-oxadiazol-3-yl]phenyl]methyl]-2,3-dihydro-1λ^6,5-benzothiazepin-4-one] | 148 | 527
13 | N[C@H]1CS(=O)(=O)c2ccc(-c3nnc(N4CCOC(C(F)(F)F)C4)o3)cc2N(Cc2ccc(-c3ccc(C(F)(F)F)cn3)cc2)C1=O (stereo partly drawn) [Example 75, (3R)-3-amino-1,1-dioxo-7-[5-[2-(trifluoromethyl)morpholin-4-yl]-1,3,4-oxadiazol-2-yl]-5-[[4-[5-(trifluoromethyl)-2-pyridyl]phenyl]methyl]-2,3-dihydro-1λ^6,5-benzothiazepin-4-one] | 115 | 1200
14 | COc1ccc(-c2ccc(CN3C(=O)[C@@H](N)CS(=O)(=O)c4ccc(-c5nnc(N6CCC(F)(F)C6)o5)cc43)cc2)cc1 [Example 76, (3R)-3-amino-7-[5-(3,3-difluoropyrrolidin-1-yl)-1,3,4-oxadiazol-2-yl]-5-[[4-(4-methoxyphenyl)phenyl]methyl]-1,1-dioxo-2,3-dihydro-1λ^6,5-benzothiazepin-4-one] | 263 | 1360
15 | N[C@H]1CS(=O)(=O)c2ccc(-c3nnc(N4CCOC5(CC5)C4)o3)cc2N(Cc2ccc(-c3noc(C(F)(F)F)n3)cc2)C1=O [Example 77] | 58 | 3920
16 | COc1ccc(-c2ccc(CN3C(=O)[C@@H](N)CS(=O)(=O)c4ccc(-c5nnc(N6CCOC(F)(F)C6)o5)cc43)cc2)cc1 [Example 79, (3R)-3-amino-7-[5-(2,2-difluoromorpholin-4-yl)-1,3,4-oxadiazol-2-yl]-5-[[4-(4-methoxyphenyl)phenyl]methyl]-1,1-dioxo-2,3-dihydro-1λ^6,5-benzothiazepin-4-one] | 167 | 989
17 | N[C@H]1CS(=O)(=O)c2ccc(-c3noc(C4(N)COC4)n3)cc2N(Cc2ccc(-c3noc(C(F)(F)F)n3)cc2)C1=O [Example 84, (3R)-3-amino-7-[5-(3-aminooxetan-3-yl)-1,2,4-oxadiazol-3-yl]-1,1-dioxo-5-[[4-[5-(trifluoromethyl)-1,2,4-oxadiazol-3-yl]phenyl]methyl]-2,3-dihydro-1lambda6,5-benzothiazepin-4-one] | 151 | 1750
